Test results reported in patent US20230391772A1, “METHODS AND COMPOSITIONS FOR TARGETED PROTEIN DEGRADATION” (Ranok Therapeutics (Hangzhou) Co. Ltd., priority 2020, published 2023).

Tests used:
HSP90a protein = molecular target: T1, HSP90a protein (Homo sapiens, UniProt P07900); assay: HSP90α-binding fluorescent polarization (FP) assay, BODIPY-labeled RNK04010 probe; conditions: FP competition with RNK04010 (BODIPY-labeled), 5 nM, 300 min at 25° C.
T1 construct: purchased BPS Bioscience 50298
In short: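 Displacement of a 5 nM fluorescent HSP90 ligand from the N-terminal HSP90a domain by FP. Incubation ran at 25° C: 120 min for the FITC-geldanamycin tracer, 300 min for the BODIPY-conjugated triazolone RNK04010.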

[1] = tested on: MIA PaCa-2 human pancreatic carcinoma; assay: MIA PaCa-2 CCK-8 proliferation assay; assay type: cell-based; conditions: Homo sapiens, MIA PaCa-2, 72 h, MIA PaCa-2 cells
In short: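 Proliferation of mutant-KRAS(G12C) cells (2 copies in MIA PaCa-2, single copy in NCI-H358/NCI-H23) measured with CCK-8 after treatment across 20 μM–1.02 nM; inhibition expressed relative to vehicle-treated wells after subtracting no-cell background.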

KRAS(G12C) = KRAS(G12C) (Homo sapiens, UniProt P01116, G12C); assay: KRAS(G12C)/SOS1 homogeneous time-resolved fluorescence (HTRF) assay; set-up: purchased Cisbio 63ADK000CB16PEG; conditions: absence of GTP, 4° C. for 3 hr, read-out: KRAS (G12C) binding
In short: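 HTRF kit measuring compound-induced block of KRAS(G12C)-SOS1 interaction without GTP. Compounds tested as 3-fold serial dilutions down to 1.02 nM, incubated with reaction components 3 h at 4 °C in sealed plates before fluorescence read.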

Chain of KRAS(G12C) (P01116 1-188 isoform P01116-2 G12C): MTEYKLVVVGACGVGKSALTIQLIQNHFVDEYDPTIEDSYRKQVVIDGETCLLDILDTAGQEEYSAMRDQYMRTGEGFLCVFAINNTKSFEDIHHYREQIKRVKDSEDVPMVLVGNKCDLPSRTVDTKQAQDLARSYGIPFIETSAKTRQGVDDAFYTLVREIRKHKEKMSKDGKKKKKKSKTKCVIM

IC50 (HSP90a protein)	EC50 [1]	IC50 (KRAS(G12C))	SMILES
< 100 nM	100 to 1000 nM	< 100 nM	C=CC(=O)N1CCN(c2nc(OC[C@@H]3C[C@H](N4CCC(C(=O)N5CCN(CCNC(=O)c6nnc(-c7cc(C(C)C)c(O)cc7O)n6-c6ccccc6)CC5)CC4)CN3C)nc3c2CCN(c2cccc4cccc(Cl)c24)C3)C[C@@H]1CC#N [Compound 320, N-[2-(4-{1-[(3S,5S)-5-({[7-(8-chloronaphthalen-1-yl)-4-[(3S)-3-(cyanomethyl)-4-(prop-2-enoyl)piperazin-1-yl]-5H,6H,8H-pyrido[3,4-d]pyrimidin-2-yl]oxy}methyl)-1-methylpyrrolidin-3-yl]piperidine-4-carbonyl}piperazin-1-yl)ethyl]-5-(2,4-dihy-droxy-5-isopropylphenyl)-4-phenyl-1,2,4-triazole-3-carboxamide]
< 100 nM	> 1000 nM	< 100 nM	C=CC(=O)N1CCN(c2nc(OC[C@@H]3C[C@H](N4CCC(C(=O)NCCOCCOc5ccc(-n6c(O)nnc6-c6cc(CC)c(O)cc6O)cc5)CC4)CN3C)nc3c2CCN(c2cccc4cccc(Cl)c24)C3)C[C@@H]1CC#N [Compound 335, 1-[(3S,5S)-5-({[7-(8-chloronaphthalen-1-yl)-4-[(3S)-3-(cyanomethyl)-4-(prop-2-enoyl)piperazin-1-yl]-5H,6H,8H-pyrido[3,4-d]pyrimidin-2-yl]oxy}methyl)-1-methylpyrrolidin-3-yl]-N-[2-(2-{4-[3-(5-ethyl-2,4-dihydroxyphenyl)-5-hydroxy-1,2,4-tri-azol-4-yl]phenoxy}ethoxy)ethyl]piperidine-4-carboxamide]
100 to 1000 nM	> 1000 nM	< 100 nM	C=CC(=O)N1CCN(c2nc(OCCN3CCC4(CC3)CCN(Cc3cc(C(C)C)c(O)cc3O)CC4)nc3c2CCN(c2cccc4cccc(Cl)c24)C3)C[C@@H]1CC#N [Compound 217, (S)-2-(1-acryloyl-4-(7-(8-chloronaphthalen-1-yl)-2-(2-(9-(2,4-dihydroxy-5-isopropylbenzyl)-3,9-diazaspiro[5.5]undecan-3-yl)ethoxy)-5,6,7,8-tetrahydropyrido[3,4-d]pyrimidin-4-yl)piperazin-2-yl)acetonitrile]
< 100 nM	100 to 1000 nM	100 to 1000 nM	C=CC(=O)N1CCN(c2nc(OC[C@@H]3C[C@@H](NC(=O)C4CCN(Cc5ccc(-n6c(C(N)=O)nnc6-c6cc(C(C)C)c(O)cc6O)cc5)CC4)CN3C)nc3c2CCN(c2cccc4cccc(Cl)c24)C3)C[C@@H]1CC#N [Compound 194, N-((3R,5S)-5-(((4-((S)-4-acryloyl-3-(cyanomethyl)piperazin-1-yl)-7-(8-chloronaphthalen-1-yl)-5,6,7,8-tetrahydropyrido[3,4-d]pyrimidin-2-yl)oxy)methyl)-1-methylpyrrolidin-3-yl)-1-(4-(3-carbamoyl-5-(2,4-dihydroxy-5-isopropylphenyl)-4H-1,2,4-triazol-4-yl)benzyl)piperidine-4-carboxamide]
< 100 nM	< 100 nM	< 100 nM	C=CC(=O)N1CCN(c2nc(OC[C@@H]3C[C@H](N4CCC(C(=O)N5CCN(Cc6ccc(-n7c(C(=O)NCC(F)(F)C(F)(F)F)nnc7-c7cc(C(C)C)c(O)cc7O)cc6)CC5)CC4)CN3C)nc3c2CCN(c2cccc4cccc(Cl)c24)C3)C[C@@H]1CC#N [Compound 323]
< 100 nM	> 1000 nM	> 1000 nM	C=CC(=O)N1CCN(c2nc(OCC3CCC(COCC(=O)N4CCN(Cc5ccc(-n6c(O)nnc6-c6cc(CC)c(O)cc6O)cc5)CC4)N3)nc3c2CCN(c2cccc4cccc(Cl)c24)C3)C[C@@H]1CC#N (stereo partly drawn) [Compound 297, 2-((2S)-1-acryloyl-4-(7-(8-chloronaphthalen-1-yl)-2-((5-((2-(4-(4-(3-(5-ethyl-2,4-dihydroxyphenyl)-5-hydroxy-4H-1,2,4-triazol-4-yl)benzyl)piperazin-1-yl)-2-oxoethoxy)methyl)pyrrolidin-2-yl)methoxy)-5,6,7,8-tetrahydropyrido[3,4-d]pyrimidin-4-yl)piperazin-2-yl)acetonitrile]
< 100 nM	< 100 nM	100 to 1000 nM	C=C(F)C(=O)N1CCN(c2nc(OCCN3CCN(C(=O)C4CCN(Cc5ccc(-n6c(C(=O)NCC(F)(F)F)nnc6-c6cc(C(C)C)c(O)cc6O)cc5)CC4)CC3)nc3c2CCN(c2cccc4cccc(Cl)c24)C3)C[C@@H]1CC#N [Compound 207, (S)-4-(4-((4-(4-(2-((7-(8-chloronaphthalen-1-yl)-4-(3-(cyanomethyl)-4-(2-fluoroacryloyl)piperazin-1-yl)-5,6,7,8-tetrahydropyrido[3,4-d]pyrimidin-2-yl)oxy)ethyl)piperazine-1-carbonyl)piperidin-1-yl)methyl)phenyl)-5-(2,4-dihydroxy-5-isopropylphenyl)-N-(2,2,2-trifluoroethyl)-4H-1,2,4-triazole-3-carboxamide]
< 100 nM	100 to 1000 nM	> 1000 nM	C=CC(=O)N1CCN(c2nc(OCC3CCC(CN4CCC(Cc5ccc(-n6c(C(=O)NCC(F)(F)F)nnc6-c6cc(C(C)C)c(O)cc6O)cc5)CC4)N3)nc3c2CCN(c2cccc4cccc(Cl)c24)C3)C[C@@H]1CC#N (stereo partly drawn) [Compound 298, 4-(4-((1-((5-(((4-((S)-4-acryloyl-3-(cyanomethyl)piperazin-1-yl)-7-(8-chloronaphthalen-1-yl)-5,6,7,8-tetrahydropyrido[3,4-d]pyrimidin-2-yl)oxy)methyl)pyrrolidin-2-yl)methyl)piperidin-4-yl)methyl)phenyl)-5-(2,4-dihydroxy-5-isopropylphenyl)-N-(2,2,2-trifluoroethyl)-4H-1,2,4-triazole-3-carboxamide]
< 100 nM	< 100 nM	< 100 nM	C=CC(=O)N1CCN(c2nc(OC[C@@H]3CC[C@H](C(=O)N4CCN(C(=O)C5CCN(Cc6ccc(-n7c(C(=O)NCC(F)(F)F)nnc7-c7cc(C)c(O)cc7O)cc6)CC5)CC4)N3C)nc3c2CCN(c2cccc4cccc(Cl)c24)C3)C[C@@H]1CC#N [Compound 332, 4-{4-[(4-{4-[(2R,5S)-5-({[7-(8-chloronaphthalen-1-yl)-4-[(3S)-3-(cyanomethyl)-4-(prop-2-enoyl)piperazin-1-yl]-5H,6H,8H-pyrido[3,4-d]pyrimidin-2-yl]oxy}methyl)-1-methylpyrrolidine-2-carbonyl]piperazine-1-carbonyl}piperidin-1-yl)methyl]phenyl}-5-(2,4-dihydroxy-5-methylphenyl)-N-(2,2,2-trifluoroethyl)-1,2,4-triazole-3-carboxamide]
< 100 nM	100 to 1000 nM	> 1000 nM	C=CC(=O)N1CCN(c2nc(OCC3CN(C(=O)C4CCN(Cc5ccc(-n6c(O)nnc6-c6cc(C(C)C)c(O)cc6O)cc5)CC4)C3)nc3c2CCN(c2cccc4cccc(Cl)c24)C3)C[C@@H]1CC#N [Compound 188, (S)-2-(1-acryloyl-4-(7-(8-chloronaphthalen-1-yl)-2-((1-(1-(4-(3-(2,4-dihydroxy-5-isopropylphenyl)-5-hydroxy-4H-1,2,4-triazol-4-yl)benzyl)piperidine-4-carbonyl)azetidin-3-yl)methoxy)-5,6,7,8-tetrahydropyrido[3,4-d]pyrimidin-4-yl)piperazin-2-yl)acetonitrile, trifluoroacetic acid]
< 100 nM	> 1000 nM	100 to 1000 nM	C=CC(=O)N1CCN(c2nc(OC[C@@H]3CN(C(=O)C4CCN(Cc5ccc(-n6c(O)nnc6-c6cc(C)c(O)cc6O)cc5)CC4)CCN3C)nc3c2CCN(c2cccc4cccc(Cl)c24)C3)C[C@@H]1CC#N [Compound 203, 2-((S)-1-acryloyl-4-(7-(8-chloronaphthalen-1-yl)-2-(((S)-4-(1-(4-(3-(2,4-dihydroxy-5-methylphenyl)-5-hydroxy-4H-1,2,4-triazol-4-yl)benzyl)piperidine-4-carbonyl)-1-methylpiperazin-2-yl)methoxy)-5,6,7,8-tetrahydropyrido[3,4-d]pyrimidin-4-yl)piperazin-2-yl)acetonitrile, trifluoroacetic acid]
< 100 nM	100 to 1000 nM	< 100 nM	C=CC(=O)N1CCN(c2nc(OC[C@H]3CC[C@@H](C(=O)N4CCN(C(=O)C5CCN(Cc6ccc(-n7c(O)nnc7-c7cc(C(C)C)c(O)cc7O)cc6)CC5)CC4)N3C)nc3c2CCN(c2cccc4cccc(Cl)c24)C3)C[C@@H]1CC#N [Compound 342, 2-[(2S)-4-[7-(8-chloronaphthalen-1-yl)-2-{[(2R,5S)-5-{4-[1-({4-[3-(2,4-dihydroxy-5-isopropylphenyl)-5-hydroxy-1,2,4-triazol-4-yl]phenyl}methyl)piperidine-4-carbonyl]piperazine-1-carbonyl}-1-methylpyrrolidin-2-yl]methoxy}-5H,6H,8H-pyri-do[3,4-d]pyrimidin-4-yl]-1-(prop-2-enoyl)piperazin-2-yl]acetonitrile]
